Target: T1, hGIP-R (Homo sapiens, UniProt P48546)
T1 construct: expressed in transfected cells; host or cells: HEK-293 clonal cell lines
T1 sequence (P48546 22-466): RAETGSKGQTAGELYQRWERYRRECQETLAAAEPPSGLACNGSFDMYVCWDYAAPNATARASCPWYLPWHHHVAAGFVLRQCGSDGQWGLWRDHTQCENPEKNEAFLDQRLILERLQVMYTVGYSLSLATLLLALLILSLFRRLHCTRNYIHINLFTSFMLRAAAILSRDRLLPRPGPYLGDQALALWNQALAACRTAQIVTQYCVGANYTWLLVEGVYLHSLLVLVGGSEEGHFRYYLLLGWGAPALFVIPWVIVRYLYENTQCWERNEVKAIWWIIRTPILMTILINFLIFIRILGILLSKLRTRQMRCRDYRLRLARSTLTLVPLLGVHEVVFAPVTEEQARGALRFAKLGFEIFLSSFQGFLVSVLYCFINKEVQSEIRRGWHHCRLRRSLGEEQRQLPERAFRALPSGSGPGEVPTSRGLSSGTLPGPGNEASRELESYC
Test: Functional hGIP-R Assay (cAMP formation, HTRF)
Type: cell-based
Settings: for Emax: cAMP efficacy, percent of maximal response to GIP(1-42)OH, 37° C., 0.1% bovine casein, arithmetic mean ± SEM; for EC50: cAMP potency, HEK-293 cells expressing hGIP-R, incubated at 37° C. in the presence of 0.1% bovine casein, geometric mean, read-out: Human GIP-R EC50, nM (SEM, n)
Protocol: Functional activity was determined using CAMP formation in HEK-293 clonal cell lines expressing hGIP-R. hGIP-R receptor expressing cells were treated with compound (20 point concentration-response curve in DMSO, 2-fold Labcyte Echo direct dilution, 384 well plate Corning Cat #3570) in DMEM (Gibco Cat #31053) supplemented with 1× GlutaMAX™ (Gibco Cat #35050), 0.1% bovine casein (Sigma C4765-10ML), 250 μM IBMX (3-Isobutyl-1-methylxanthine, Acros Cat #228420010) and 20 mM HEPES (Gibco Cat #15630) in a 20 μL assay volume (final DMSO concentration was 1%). After a 30 min incubation at 37° C., the resulting increase in intracellular cAMP was quantitatively determined using the Revvity CAMP Dynamic 2 HTRF Assay Kit (62AM4PEJ). Briefly, cAMP levels within the cell were detected by adding the cAMP-d2 conjugate in cell lysis buffer (10 μL) followed by the antibody anti-cAMP-Eu^3+-Cryptate, also in cell lysis buffer (10 μL). The resulting competitive assay was incubated for at least 60 min at RT, then detected using a BMG Labtech PHERAstar FSX instrument with excitation at 320 nm and emission at 665 nm and 620 nm. PHERAstar units (emission at 665 nm/620 nm*10,000) are inversely proportional to the amount of cAMP present and were converted to nM cAMP per well using a CAMP standard curve. The amount of cAMP generated (nM) in each well was converted to a percent of the maximal response observed with human GIP (1-42) OH. A relative EC50 value and percent top (Emax) were derived by non-linear regression analysis using the percent maximal response vs. the concentration of compound added, fitted to a four-parameter logistic equation.

Row | SMILES | Emax [%] | EC50 [nM]
1 | COC(=O)N(C)c1cc([C@H]2C[C@@H]2C(=O)N[C@H](Cc2cnn(C(F)F)c2)C(=O)NC(C)(C)Cn2nc(C(F)(F)F)cc2-c2cc(F)c(=O)n(C)c2)c(F)cc1O [Example 181, Methyl (5-((1S,2S)-2-(((R)-3-(1-(difluoromethyl)-1H-pyrazol-4-yl)-1-((1-(5-(5-fluoro-1-methyl-6-oxo-1,6-dihydropyridin-3-yl)-3-(trifluoromethyl)-1H-pyrazol-1-yl)-2-methylpropan-2-yl)amino)-1-oxopropan-2-yl)carbamoyl)cyclopropyl)-4-fluoro-2-hydroxyphenyl)(methyl)carbamate] | 25.5 ± 2.92 | 23.1
2 | Cn1cc(C[C@@H](NC(=O)[C@H]2C[C@@H]2c2ccc(-c3cnc4nn(C)cc4c3)cc2)C(=O)NC(C)(C)Cn2nc(C(F)(F)F)cc2-c2ccn(C[C@H]3C[C@H](F)C3)n2)cn1 [Example 67, (1S,2S)-N—((R)-1-((1-(1-(((trans)-3-fluorocyclobutyl)methyl)-5′-(trifluoromethyl)-1H,2′H-[3,3′-bipyrazol]-2′-yl)-2-methylpropan-2-yl)amino)-3-(1-methyl-1H-pyrazol-4-yl)-1-oxopropan-2-yl)-2-(4-(2-methyl-2H-pyrazolo[3,4-b]pyridin-5-yl)phenyl)cyclopropane-1-carboxamide] | 115 ± 8.68 | 45
3 | Cn1cc2cc(-c3ccc(C4CC45CCN([C@H](Cc4cnn(C(F)F)c4)C(=O)NC(C)(C)Cn4nc(C(F)(F)F)cc4-c4cc(F)c(=O)n(C)c4)C5=O)c(C(F)F)c3)cnc2n1 (single isomer, unassigned; isomer 2) [Example 109] | 73.3 ± 2.59 | 0.701
4 | Cc1cn2cc(-c3ccc([C@H]4C[C@@]45CCN([C@H](Cc4cnn(C(F)F)c4)C(=O)NC(C)(C)Cn4nc(C(F)(F)F)cc4-c4ccc(C(C)(C)O)nc4)C5=O)c(C)n3)cnc2n1 [Example 178, (R)-3-(1-(difluoromethyl)-1H-pyrazol-4-yl)-N-(1-(5-(6-(2-hydroxypropan-2-yl)pyridin-3-yl)-3-(trifluoromethyl)-1H-pyrazol-1-yl)-2-methylpropan-2-yl)-2-((1R,3R)-1-(2-methyl-6-(2-methylimidazo[1,2-a]pyrimidin-6-yl)pyridin-3-yl)-4-oxo-5-azaspiro[2.4]heptan-5-yl)propanamide] | 39.9 ± 0.556 | 0.743
5 | CC(=O)N1CCN(c2ccc(C3CC34CCN([C@H](Cc3cnn(C(F)F)c3)C(=O)NC(C)(C)Cn3nc(C(F)(F)F)cc3-c3cnc(C)nc3)C4=O)c(C(F)(F)F)n2)CC1 (single isomer, unassigned; isomer 1) [Example 116] | 23.1 ± 0.52 | 127
6 | Cn1cc2cc(-c3ccc([C@H]4C[C@@]45CCN([C@H](Cc4cnn(C(F)F)c4)C(=O)NC(C)(C)Cn4nc(C(F)(F)F)cc4-c4cc(C(F)(F)F)c(=O)n(C)c4)C5=O)cc3)cnc2n1 [Example 130, (R)-3-(1-(Difluoromethyl)-1H-pyrazol-4-yl)-N-(2-methyl-1-(5-(1-methyl-6-oxo-5-(trifluoromethyl)-1,6-dihydropyridin-3-yl)-3-(trifluoromethyl)-1H-pyrazol-1-yl)propan-2-yl)-2-((1R,3R)-1-(4-(2-methyl-2H-pyrazolo[3,4-b]pyridin-5-yl)phenyl)-4-oxo-5-azaspiro[2.4]heptan-5-yl)propanamide] | 74.9 ± 11.6 | 104
7 | CC(C)(Cn1cc(C(F)(F)F)cn1)NC(=O)[C@@H](Cc1cnc2ncccn12)NC(=O)[C@H]1C[C@@H]1c1ccc(NC(=O)C2CCC(F)(F)CC2)cc1 [Example 45, 4,4-Difluoro-N-(4-((1S,2S)-2-(((R)-3-(imidazo[1,2-a]pyrimidin-3-yl)-1-((2-methyl-1-(4-(trifluoromethyl)-1H-pyrazol-1-yl)propan-2-yl)amino)-1-oxopropan-2-yl)carbamoyl)cyclopropyl)phenyl)cyclohexane-1-carboxamide] | 79.8 ± 9.84 | 10.7
8 | COc1ncc(-c2ccc([C@H]3C[C@@]34CCN([C@H](Cc3cnn(C(F)F)c3)C(=O)NC(C)(C)Cn3nc(C(F)(F)F)cc3-c3ccn(C5CC5)c(=O)c3)C4=O)c(C)n2)cc1F [Example 174, (R)-N-(1-(5-(1-cyclopropyl-2-oxo-1,2-dihydropyridin-4-yl)-3-(trifluoromethyl)-1H-pyrazol-1-yl)-2-methylpropan-2-yl)-3-(1-(difluoromethyl)-1H-pyrazol-4-yl)-2-((1R,3R)-1-(5′-fluoro-6′-methoxy-6-methyl-[2,3′-bipyridin]-5-yl)-4-oxo-5-azaspiro[2.4]heptan-5-yl)propanamide] | 13.4 ± 1.64 | 6.09
9 | Cc1nc(C2CC2)nc(O)c1-c1cc(C(F)(F)F)nn1CC(C)(C)NC(=O)[C@@H](Cc1cnn(C(F)F)c1)N1CC[C@@]2(C[C@@H]2c2ccc(-c3cnc4nn(C)cc4c3)cc2)C1=O [Example 122, (R)-N-(1-(5-(2-Cyclopropyl-4-hydroxy-6-methylpyrimidin-5-yl)-3-(trifluoromethyl)-1H-pyrazol-1-yl)-2-methylpropan-2-yl)-3-(1-(difluoromethyl)-1H-pyrazol-4-yl)-2-((1R,3R)-1-(4-(2-methyl-2H-pyrazolo[3,4-b]pyridin-5-yl)phenyl)-4-oxo-5-azaspiro[2.4]heptan-5-yl)propanamide] | 90.8 ± 7.25 | 103
10 | CC(C)(Cn1cc(C(F)(F)F)cn1)NC(=O)[C@@H](Cc1cnc2ncccn12)NC(=O)[C@H]1C[C@@H]1c1ccc(-c2cnc3nc(C4CC(F)(F)C4)cn3c2)cc1 [Example 74, (1S,2S)-2-(4-(2-(3,3-Difluorocyclobutyl)imidazo[1,2-a]pyrimidin-6-yl)phenyl)-N-((R)-3-(imidazo[1,2-a]pyrimidin-3-yl)-1-((2-methyl-1-(4-(trifluoromethyl)-1H-pyrazol-1-yl)propan-2-yl)amino)-1-oxopropan-2-yl)cyclopropane-1-carboxamide] | 102 ± 3.65 | 13.6
11 | COCc1cn2cc(-c3ccc([C@H]4C[C@@]45CCN([C@H](Cc4cnn(C(F)F)c4)C(=O)NC(C)(C)Cn4nc(C(F)(F)F)cc4-c4cncc(C)n4)C5=O)c(C)n3)cnc2n1 [Example 176, (R)-3-(1-(difluoromethyl)-1H-pyrazol-4-yl)-2-((1R,3R)-1-(6-(2-(methoxymethyl)imidazo[1,2-a]pyrimidin-6-yl)-2-methylpyridin-3-yl)-4-oxo-5-azaspiro[2.4]heptan-5-yl)-N-(2-methyl-1-(5-(6-methylpyrazin-2-yl)-3-(trifluoromethyl)-1H-pyrazol-1-yl)propan-2-yl)propanamide] | 123 | 14.4
12 | Cn1cc(C[C@@H](NC(=O)[C@H]2C[C@@H]2c2ccc(-c3cnc4nn(C)cc4c3)cc2)C(=O)NC(C)(C)Cn2nc(C(F)F)cc2-c2cn[nH]n2)cn1 [Example 44, (1S,2S)-N-((R)-1-((1-(3-(Difluoromethyl)-5-(2H-1,2,3-triazol-4-yl)-1H-pyrazol-1-yl)-2-methylpropan-2-yl)amino)-3-(1-methyl-1H-pyrazol-4-yl)-1-oxopropan-2-yl)-2-(4-(2-methyl-2H-pyrazolo[3,4-b]pyridin-5-yl)phenyl)cyclopropane-1-carboxamide] | 111 ± 17.5 | 122
